Measurements: patent US20120135923A1, “Use of Melanocortins to Treat Dyslipidemia” (IPSEN PHARMA, S.A.S., priority 2009, published 2012)
Read-outs that look alike come from different tables or passages of the source. Bridge positions count the residues as written; N and C are the ends. Square brackets hold non-standard residues; d marks the D form. Peptide text beside a SMILES is read from it. d2Nal = N[C@H](Cc1ccc2ccccc2c1)C(=O)O; Bta = N[C@@H](Cc1csc2ccccc12)C(=O)O; Pen = CC(C)(S)[C@H](N)C(=O)O; Nle = CCCC[C@H](N)C(=O)O; GABA = NCCCC(=O)O; βAla = NCCC(=O)O

Legend:
[1] = target: T1, hMC1-R (Homo sapiens, UniProt Q01726); assay: cyclic AMP bioassay (ECL) in CHO-K1 cells; format: cell-based
T1 construct: expressed in transfected cells; host or cells: CHO-K1

[2] = target: T2, hMC5-R (Homo sapiens, UniProt P33032); assay: cyclic AMP bioassay (ECL) in CHO-K1 cells; format: cell-based
T2 construct: expressed in transfected cells; host or cells: CHO-K1
Protocol: (§3) Intracellular cyclic AMP (cAMP) levels were determined by an electrochemiluminescence (ECL) assay (Meso Scale Discovery®, Gaithersburg, Md.; referred to hereinafter as MSD). […] Transgenic CHO-K1 cells stably expressing hMC receptor subtypes 1, 3, 4 or 5 were dispensed at a density of approximately 7,000 cells/well in 384-well Multi-Array®plates (MSD) containing integrated carbon electrodes and coated with anti-cAMP antibody. Increasing concentrations of the test compounds were added and the cells were incubated for approximately 40 minutes at approximately 37° C. […] At the end of the second incubation period read buffer (Tris-buffered solution containing an ECL co-reactant and Triton X-100 at ph 7.8) was added and the cAMP levels in the cell lysates were immediately determined by ECL detection with a Sector Imager 6000 Reader® (MSD). Data were analyzed using a computer-assisted non-linear regression analysis (XL fit; IDBS) and reported as either an EC50 value or a Kb value.
(§4) The Kb value reflects the potency of an antagonist and is determined by Schild analysis. In brief, concentration-response curves of an agonist are carried out in the presence of increasing concentrations of an antagonist. […] It is calculated by extrapolating the line on a Schild plot to zero on the y-axis.

[3] = target: T3, hMC4-R (Homo sapiens, UniProt P32245); assay: cyclic AMP bioassay (ECL) in CHO-K1 cells; format: cell-based
T3 construct: expressed in transfected cells; host or cells: CHO-K1
Protocol: as §3, §4

[4] = target: T4, hMC3-R (Homo sapiens, UniProt P41968); assay: cyclic AMP bioassay (ECL) in CHO-K1 cells; format: cell-based
T4 construct: expressed in transfected cells; host or cells: CHO-K1
Protocol: as §3, §4

[5] = target: T1, hMC1-R; assay: Radioligand binding assay, [125I]-NDP-α-MSH competition, CHO-K1 membranes; details: Table 5
Protocol: (§1) Cellular membranes used for the in vitro receptor binding assays were obtained from transgenic CHO-K1 cells stably expressing hMC-R receptor subtypes 1, 3, 4 or 5. […] The pellets were resuspended in the same buffer and centrifuged at 50,000 g for 10 minutes at approximately 4° C. The washed pellets containing the cellular membranes were stored at approximately −80° C.
(§2) Cell membranes (1-10 μg protein/well) prepared as described above were incubated in 50 mM Tris-HCl at pH 7.4 containing 0.2% bovine serum albumin (BSA), 5 mM MgCl2, 1 mM CaCl2 and 0.1 mg/mL bacitracin, with increasing concentrations of the test compound and 0.1-0.3 nM [^25I]-NDP-α-MSH for approximately 90-120 minutes at approximately 37° C. […] Filters were washed three times with 50 mM Tris-HCl at pH 7.4 at a temperature of approximately 0-4° C. and then assayed for radioactivity using a Packard Topcount® scintillation counter. Binding data were analyzed by computer-assisted non-linear regression analysis (XL fit; IDBS).

[6] = target: T2, hMC5-R; assay: as above; details: Table 5; read-out: Ki hMC5-R
Protocol: as §1, §2

[7] = target: T4, hMC3-R; assay: as above
Protocol: as §1, §2

[8] = Table 9A/9B, read-out: EC50 hMC1-R
[9] = Table 9A/9B, read-out: EC50 hMC5-R
[10] = Table 9A/9B, read-out: EC50 hMC4-R
[11] = Table 9A/9B, read-out: EC50 hMC3-R

T4 sequence (P41968 whole entry): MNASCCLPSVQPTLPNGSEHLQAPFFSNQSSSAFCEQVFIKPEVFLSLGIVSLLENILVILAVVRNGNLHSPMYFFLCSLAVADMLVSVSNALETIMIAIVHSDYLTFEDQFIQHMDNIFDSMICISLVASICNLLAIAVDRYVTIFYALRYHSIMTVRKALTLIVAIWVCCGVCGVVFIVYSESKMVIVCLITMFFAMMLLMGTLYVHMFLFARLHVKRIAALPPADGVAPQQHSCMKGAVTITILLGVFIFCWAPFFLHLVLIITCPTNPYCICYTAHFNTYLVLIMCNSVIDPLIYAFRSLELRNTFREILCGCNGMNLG
T3 sequence (P32245 whole entry): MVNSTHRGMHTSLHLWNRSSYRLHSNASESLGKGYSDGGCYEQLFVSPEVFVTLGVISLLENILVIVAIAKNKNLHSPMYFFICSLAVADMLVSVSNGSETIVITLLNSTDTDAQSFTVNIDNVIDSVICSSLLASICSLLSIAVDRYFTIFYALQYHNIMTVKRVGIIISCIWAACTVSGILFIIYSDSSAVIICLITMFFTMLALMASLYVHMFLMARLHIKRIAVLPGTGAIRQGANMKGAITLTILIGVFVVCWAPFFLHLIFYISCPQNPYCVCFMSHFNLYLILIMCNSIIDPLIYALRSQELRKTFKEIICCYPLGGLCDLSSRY
T1 sequence (Q01726 whole entry): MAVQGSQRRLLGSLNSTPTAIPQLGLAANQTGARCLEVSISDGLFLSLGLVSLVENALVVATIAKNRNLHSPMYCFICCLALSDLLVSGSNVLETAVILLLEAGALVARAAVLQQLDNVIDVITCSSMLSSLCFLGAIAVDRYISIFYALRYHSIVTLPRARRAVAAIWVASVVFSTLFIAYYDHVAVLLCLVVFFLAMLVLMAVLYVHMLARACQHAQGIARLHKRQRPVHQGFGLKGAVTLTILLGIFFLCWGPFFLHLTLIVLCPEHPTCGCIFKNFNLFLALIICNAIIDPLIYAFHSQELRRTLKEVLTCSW
T2 sequence (P33032 whole entry): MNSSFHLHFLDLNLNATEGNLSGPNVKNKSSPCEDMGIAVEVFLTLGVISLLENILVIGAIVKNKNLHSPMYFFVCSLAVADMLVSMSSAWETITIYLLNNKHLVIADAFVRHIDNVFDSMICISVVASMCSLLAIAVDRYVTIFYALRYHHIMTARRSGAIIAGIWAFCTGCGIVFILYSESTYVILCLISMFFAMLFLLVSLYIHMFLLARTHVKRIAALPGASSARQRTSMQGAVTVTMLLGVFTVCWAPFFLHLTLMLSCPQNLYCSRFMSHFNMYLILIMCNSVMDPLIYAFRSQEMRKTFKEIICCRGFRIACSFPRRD

| Structure (SMILES) | EC50 [1, 8] [nM] | EC50 [2, 9] [nM] | EC50 [3, 10] [nM] | EC50 [4, 11] [nM] | Ki ([5]; read-out: Ki hMC1-R) [nM] | Ki [6] [nM] | Ki ([7]; Table 5, read-out: Ki hMC3-R) [nM] | other results |
| --- | --- | --- | --- | --- | --- | --- | --- | --- |
| CCCC[C@H](N)C(=O)N[C@H]1CSSC[C@@H](C(N)=O)NC(=O)CCCNC(=O)[C@H](Cc2c[nH]c3ccccc23)NC(=O)[C@H](CCCNC(=N)N)NC(=O)[C@@H](Cc2ccccc2)NC(=O)[C@H](Cc2c[nH]cn2)NC1=O [Nle-c(Cys-His-D-Phe-Arg-Trp-Gaba-Cys)-NH2] (H-[Nle]CH[dF]RW[GABA]C-NH2; disulfide 2-8) | 0.37 | 1.7 | 0.021 | 0.1 | 0.05 | – | – | – |
| CCOc1ccc(C[C@H]2NC(=O)[C@H](Cc3c[nH]cn3)NC(=O)[C@@H](NC(=O)[C@H](N)Cc3ccccc3)CSSC[C@H](C(=O)N[C@H](C(N)=O)[C@@H](C)O)NC(=O)CCNC(=O)[C@H](Cc3c[nH]c4ccccc34)NC(=O)[C@H](CCCNC(=N)N)NC2=O)cc1 [D-Phe-c(Cys-His-D-(Et)Tyr-Arg-Trp-β-Ala-D-Cys)-Thr-NH2] (H-[dF]CH[dY](Et)RW[βAla][dC]T-NH2; disulfide 2-8) | 0.35 | 0.37 | 0.11 | 1.1 | 0.05 | 2.9 | 9.3 | – |
| CCCC[C@H](NC(C)=O)C(=O)N[C@H]1CSSC[C@@H](C(N)=O)NC(=O)[C@H](Cc2c[nH]c3ccccc23)NC(=O)[C@H](CCCNC(=N)N)NC(=O)[C@@H](Cc2ccccc2)NC(=O)[C@H](Cc2c[nH]cn2)NC(=O)[C@@H](C(C)(C)C)NC1=O [Ac-Nle-c(Cys-D-Tle-His-D-Phe-Arg-Trp-Cys)-NH2] | – | – | – | – | 12 | 40 | – | – |
| CCCC[C@H](NC(C)=O)C(=O)N[C@H]1CSSC[C@@H](C(N)=O)NC(=O)[C@H](Cc2c[nH]c3ccccc23)NC(=O)[C@H](CCCNC(=N)N)NC(=O)[C@@H](Cc2ccccc2)NC(=O)[C@H](Cc2c[nH]cn2)NC(=O)[C@@H](C(C)C)NC1=O [Ac-Nle-c(Cys-D-Val-His-D-Phe-Arg-Trp-Cys)-NH2] | – | – | – | – | – | 40 | 104 | – |
| N=C(N)NCCC[C@@H]1NC(=O)[C@@H](Cc2ccccc2)NC(=O)[C@H](Cc2c[nH]cn2)NC(=O)[C@@H](NC(=O)[C@@H](N)Cc2ccccc2)CSSC[C@@H](C(N)=O)NC(=O)CCCNC(=O)[C@H](Cc2c[nH]c3ccccc23)NC1=O [Phe-c(Cys-His-D-Phe-Arg-Trp-Gaba-Cys)-NH2] (H-FCH[dF]RW[GABA]C-NH2; disulfide 2-8) | – | – | – | – | – | – | 15.2 | – |
| CC(=O)N[C@@H](CCCNC(=N)N)C(=O)N[C@H]1CSSC(C)(C)[C@@H](C(N)=O)NC(=O)CCCNC(=O)[C@H](Cc2c[nH]c3ccccc23)NC(=O)[C@H](CCCNC(=N)N)NC(=O)[C@@H](Cc2ccccc2)NC(=O)[C@H](Cc2c[nH]cn2)NC1=O [Ac-Arg-c(Cys-His-D-Phe-Arg-Trp-Gaba-Pen)-NH2] (Ac-RCH[dF]RW[GABA][Pen]-NH2; disulfide 2-8 (inferred)) | 4.23 | 23.2 | 0.719 | 8.09 | 1.81 | – | – | – |
| CCCC[C@H](NC(C)=O)C(=O)N[C@H]1CSSC[C@@H](C(N)=O)NC(=O)CCCNC(=O)[C@H](Cc2c[nH]c3ccccc23)NC(=O)[C@H](CCCNC(=N)N)NC(=O)[C@@H](Cc2ccccc2)NC(=O)[C@H](Cc2cccnc2)NC1=O [Ac-Nle-c(Cys-3-Pal-D-Phe-Arg-Trp-Gaba-Cys)-NH2] | – | – | – | – | 21.1 | 92.6 | 151 | – |
| CCCC[C@H](NC(C)=O)C(=O)N[C@H]1CSSC[C@@H](C(N)=O)NC(=O)[C@H](Cc2csc3ccccc23)NC(=O)[C@H](CCCNC(=N)N)NC(=O)[C@@H](Cc2ccc3ccccc3c2)NC(=O)[C@H](Cc2c[nH]cn2)NC(=O)[C@@H](C)NC1=O [Ac-Nle-c(Cys-D-Ala-His-D-2-Nal-Arg-Bal-Cys)-NH2] (Ac-[Nle]C[dA]H[d2Nal]R[Bta]C-NH2; disulfide 2-8) | – | – | – | – | 22.2 | 125 | 12.7 | – |
| CC(=O)N[C@@H](CC(C)C)C(=O)N[C@H]1CSSC[C@@H](C(N)=O)NC(=O)CCCNC(=O)[C@H](Cc2c[nH]c3ccccc23)NC(=O)[C@H](CCCNC(=N)N)NC(=O)[C@@H](Cc2ccccc2)NC(=O)[C@H](Cc2c[nH]cn2)NC1=O [Ac-Leu-c(Cys-His-D-Phe-Arg-Trp-Gaba-Cys)-NH2] (Ac-LCH[dF]RW[GABA]C-NH2; disulfide 2-8 (inferred)) | – | – | – | – | – | – | 17.4 | – |
| CCCC[C@H](NC(C)=O)C(=O)N[C@H]1CSSC(C)(C)[C@@H](C(N)=O)NC(=O)[C@H](Cc2c[nH]c3ccccc23)NC(=O)[C@H](CCCNC(=N)N)NC(=O)[C@@H](Cc2ccccc2)NC(=O)[C@H](Cc2c[nH]cn2)NC(=O)[C@@H](C)NC1=O [Ac-Nle-c(Cys-D-Ala-His-D-Phe-Arg-Trp-Pen)-NH2] | – | – | – | – | – | – | – | EC50 [1]: 14.3 nM; EC50 [2]: 2240 nM; EC50 [3]: 0.183 nM; EC50 [4]: 2.03 nM; Ki ([5]; Ki hMC1-R): 29.1 nM; Ki ([7]; Ki hMC3-R, Table 5): 22.8 nM |
| CC(=O)N[C@H](CCCNC(=N)N)C(=O)N[C@H]1CC(=O)NCCCC[C@@H](C(N)=O)NC(=O)[C@H](C)NC(=O)[C@H](Cc2c[nH]c3ccccc23)NC(=O)[C@H](CCCNC(=N)N)NC(=O)[C@@H](Cc2ccccc2)NC(=O)[C@H](Cc2c[nH]cn2)NC1=O [Ac-D-Arg-c(Asp-His-D-Phe-Arg-Trp-Ala-Lys)-NH2] | 1.48 | 297 | 0.078 | 5.76 | 0.79 | – | – | – |
| CC(=O)N[C@H](CCCNC(=N)N)C(=O)N[C@H]1CSSC(C)(C)[C@@H](C(N)=O)NC(=O)CCCNC(=O)[C@H](Cc2c[nH]c3ccccc23)NC(=O)[C@H](CCCNC(=N)N)NC(=O)[C@@H](Cc2ccccc2)NC(=O)[C@H](Cc2c[nH]cn2)NC1=O [Ac-D-Arg-c(Cys-His-D-Phe-Arg-Trp-Gaba-Pen)-NH2] (Ac-[dR]CH[dF]RW[GABA][Pen]-NH2; disulfide 2-8 (inferred)) | 8.43 | 2140 | 0.959 | 32.4 | 3.93 | – | – | – |
| CC(=O)N[C@H]1CSSC[C@@H](C(=O)N2CCC[C@H]2C(=O)N2CCC[C@H]2C(=O)N[C@@H](CCCCN)C(=O)N[C@@H](CC(=O)O)C(=O)NCCC(=O)N[C@@H](Cc2ccc(O)cc2)C(=O)NCC(=O)N[C@@H](CCCNC(=N)N)C(=O)N[C@@H](CCCCN)C(=O)N[C@@H](CCCNC(=N)N)C(=O)N[C@@H](CCCNC(=N)N)C(=O)N[C@@H](CCCNC(=N)N)C(=O)N[C@@H](CCC(N)=O)C(=O)N[C@@H](CCCNC(=N)N)C(=O)N[C@@H](CCCNC(=N)N)C(=O)N[C@@H](CCCNC(=N)N)C(N)=O)NC(=O)[C@H](C)NC(=O)[C@H](Cc2csc3ccccc23)NC(=O)[C@H](CCCNC(=N)N)NC(=O)[C@@H](Cc2ccc3ccccc3c2)NC(=O)[C@H](Cc2c[nH]cn2)NC(=O)[C@H](CCC(=O)O)NC1=O | – | – | – | – | – | – | – | EC50 [1]: 11.2 nM; EC50 [2]: 95.7 nM; Kb [3]: 9.45 nM; Kb [4]: 52.1 nM; Ki ([7]; Ki hMC3-R, Table 6): 1.12 nM |
| CC(=O)N[C@H]1CSSC[C@@H](C(=O)N2CCC[C@H]2C(=O)N2CCC[C@H]2C(=O)N[C@@H](CCCCN)C(=O)N[C@@H](CC(=O)O)C(=O)NCCC(=O)N[C@@H](CCCNC(=N)N)C(=O)N[C@@H](CCCNC(=N)N)C(=O)N[C@@H](CCCNC(=N)N)C(=O)N[C@@H](CCCNC(=N)N)C(=O)N[C@@H](CCCNC(=N)N)C(=O)N[C@@H](CCCNC(=N)N)C(=O)N[C@@H](CCC(N)=O)C(=O)N[C@@H](CCCNC(=N)N)C(=O)N[C@@H](CCCNC(=N)N)C(=O)N[C@@H](CCCNC(=N)N)C(N)=O)NC(=O)[C@H](C)NC(=O)[C@H](Cc2csc3ccccc23)NC(=O)[C@H](CCCNC(=N)N)NC(=O)[C@@H](Cc2ccc3ccccc3c2)NC(=O)[C@H](Cc2c[nH]cn2)NC(=O)[C@H](CCC(=O)O)NC1=O | – | – | – | – | – | – | – | EC50 [1]: 68.6 nM; EC50 [2]: > 10000 nM; Kb [3]: 33.2 nM; Kb [4]: 153 nM; Ki ([7]; Ki hMC3-R, Table 6): 14.3 nM |
| CCCC[C@H](NC(C)=O)C(=O)N[C@H]1CSSC[C@@H](C(N)=O)NC(=O)[C@H](Cc2c[nH]c3ccccc23)NC(=O)[C@H](CCCNC(=N)N)NC(=O)[C@@H](Cc2ccccc2)NC(=O)[C@H](Cc2c[nH]cn2)NC(=O)[C@@H](CC2CCCCC2)NC1=O [Ac-Nle-c(Cys-D-Cha-His-D-Phe-Arg-Trp-Cys)-NH2] | 0.819 | 45.3 | 0.453 | 0.541 | – | – | 2.08 | – |
